Measurements published in patent publication EP3748362A1, “IN VITRO METHOD FOR DETECTING RENAL DISEASE” (Fundacion Instituto De Investigacion Sanitaria Fundacion …, priority 2019, dated 2020).

Assays:
[1] = test system: proinflammatory gene expression; test: Proinflammatory gene expression (real time PCR) in PBMCs from ESRD patients; assay type: in vivo, human; settings: ESRD patients treated with paricalcitol vs untreated ESRD hemodialysis patients
Procedure: Intracellular protein and mRNA levels were measured in PBMCs from ESRD patients on hemodialysis. Inclusion criteria were as follows: age >45 years; male sex; informed consent; and absence of active inflammatory, infectious, or malignant diseases at the initiation or during the study. This study was approved by the IIS-Fundación Jiménez Diaz Ethics Committee. Patients were enrolled after providing written informed consent. PBMCs were separated from whole blood samples (30 ml into EDTA tubes) by a density gradient centrifugation method using Ficoll density gradient centrifugation. In total, 50x10^6 of PBMCs were obtained from 30 ml of whole blood and 6x10^6 PBMCs were used to isolate protein, RNA and nuclear/cytosolic protein levels using the NE-PER Reagent (Pierce) following the manufacturer's instructions.
Total RNA was isolated from cells and mouse kidney samples with Trizol (Invitrogen). The cDNA was synthesized using the High-Capacity cDNA Archive Kit (Applied Biosystems) using 2 µg total RNA primed with random hexamer primers. […] The mRNA copy numbers were calculated for each sample by the instrument software using Ct value. Results are expressed in copy numbers, calculated relative to unstimulated cells or control mice, after normalization against 18S.

NF-κB2 [2] = test: Non-canonical NF-κB2 activation in TWEAK-stimulated PBMCs from healthy donors; assay type: cell-based, Human; settings: 12 µM paricalcitol 24 hours, TWEAK 100 ng/ml, p52 levels
[3] = test system: renal inflammation in experimental Unilateral Ureteral Obstruction (UUO); test: Renal inflammation in unilateral ureteral obstruction (UUO) in mice; assay type: in vivo, C57BL/6 mice; settings: obstructed kidneys (UUO), paricalcitol 750 ng/kg/day
Procedure: (§1) All animal procedures were performed according to the guidelines of animal research in the European Community and with prior approval by the Ethics Committee of the Health Research of the IIS-Fundacion Jiménez Díaz. For in vivo studies, mice received a daily intraperitoneal injection of the VDRA Paricalcitol starting 48 hours prior to induction of kidney damage.
At the time of sacrifice, animals were anesthetized with 5 mg/kg xylazine (Rompun, Bayer AG) and 35 mg/kg ketamine (Ketolar, Pfizer) and the kidneys perfused in situ with cold saline before removal. […]
(§2) Paraffin-embedded kidney sections (3 µm) were stained using conventional methods. […] For each sample (processed by duplicate in a blinded manner), the average value was obtained from the analysis of 4 fields (20X objective) as density/mm2 or percentage stained area vs total analyzed area. Data are expressed as fold increase over control mice, as mean ± SEM of 8-10 animals per group. […]
Total RNA was isolated from cells and mouse kidney samples with Trizol (Invitrogen). […] The mRNA copy numbers were calculated for each sample by the instrument software using Ct value. Results are expressed in copy numbers, calculated relative to unstimulated cells or control mice, after normalization against 18S.

NF-κB2 [4] = test: Non-canonical NF-κB2 activation and NF-κB2 targets in obstructed kidneys (UUO) in mice; assay type: in vivo; settings: paricalcitol 750 ng/kg/day
Procedure: as §1
(§3) At the time of sacrifice, animals were anesthetized with 5 mg/kg xylazine (Rompun, Bayer AG) and 35 mg/kg ketamine (Ketolar, Pfizer) and the kidneys perfused in situ with cold saline before removal. Then, kidney portions were fixed in formalin buffer for immunohistochemistry studies or immediately frozen in liquid nitrogen for gene and protein studies.
Unilateral ureteral obstruction (UUO) was established in male C57BL/6 mice, under isoflurane-induced anesthesia. The left ureter was ligated with silk (5/0) at two locations and cut between ligatures to prevent urinary tract infection (obstructed kidney).(Ucero et al 2014; Rodrigues-Díez et al 2013) Two groups were studied; untreated or paricalcitol treated (750 ng/kg/day, i.p., Abbot), n=6-8 mice per group, starting 48 hours before surgery. Studies compared both kidneys (contralateral vs. obstructed) in each mouse.
as §2
For western blot, cell (25 µg/lane) and kidney (100-150 µg/lane) protein extracts were separated on 6%-12% polyacrylamide-SDS gels under reducing conditions. […] Autoradiographs were scanned using the Gel Doc™ EZ imager and analyzed with the Image Lab 3.0 software (BioRad). […]

NF-κB1 = test: Canonical NF-κB1 activation, folic acid-induced renal injury in mice; assay type: in vivo; settings: folic acid 300 mg/kg model; paricalcitol 25 µg/kg/day i.p.
Procedure: as §1, §3
Folic acid nephropathy is a classical model of kidney tubulointerstitial injury and inflammation that has been reported in humans. Mice received a single intraperitoneal injection of folic acid (Sigma) 300 mg/kg in 0.3 mol/l sodium bicarbonate or vehicle, and were sacrificed 48 hours later. […]
For western blot, cell (25 µg/lane) and kidney (100-150 µg/lane) protein extracts were separated on 6%-12% polyacrylamide-SDS gels under reducing conditions. […] Autoradiographs were scanned using the Gel Doc™ EZ imager and analyzed with the Image Lab 3.0 software (BioRad).

p100/p52 processing, and p52 nuclear translocation and DNA binding activity (NF-κB2 [4]): blocked
SMILES: C[C@H](/C=C/[C@H](C)C(C)(C)O)[C@H]1CC[C@H]2/C(=C/C=C3C[C@@H](O)C[C@H](O)C3)CCC[C@]12C [paricalcitol]
proinflammatory gene expression levels [1]: significantly lower
TWEAK-induced NF-κB2 activation (NF-κB2 [2]): inhibited
inflammatory cell infiltration ([3]; 5 days after UUO): prevented
increased expression of proinflammatory factors, such as CCL2, CCL5, IL6 ([3]; real time PCR): prevented
increased RelB levels and its nuclear localization (NF-κB2 [4]): prevented
increased expression of specific NF-κB2-regulated chemokines, including CCL21A and CCL19 (NF-κB2 [4]; real time PCR): prevented
NF-κB1 activation, evaluated by IκB-α phosphorylation (NF-κB1): not modified
